Measurements as given in BindingDB's records for doi:10.1016/j.chembiol.2016.12.011 (Saarland University, 2017).

Biological target: Ezrin (Homo sapiens, UniProt P15311)
Assay: SPR Assay
Details: pH 5.5; 25 °C
Method: Recombinant ezrin (Hypermol) was diluted to […] in sodium acetate buffer (pH 5.5, 10 mM) immobilized for 350 s on a CM5 Sensor Chip (Biacore) by standard amine coupling to yield around 10,000 response units. The reference flow cell was prepared exactly as the ligand flow cell, although sodium acetate buffer only (pH 5.5, 10 mM) was used instead of recombinant ezrin. Binding interactions were monitored at 25 °C with a flow rate of […] in HBSEP/1% DMSO as running buffer. Disorazole A was injected at […]. Disorazole Z was injected at […]. The contact time for each compound was 120 s and the dissociation time 500 s. To rule out non-specific binding, a negative control protein was immobilized on a CM5 Sensor Chip (Biacore) by standard amine coupling: BSA (Sigma) was diluted to […] in sodium acetate buffer (pH 4.5, 10 mM) and immobilized for 90 s to yield around 5,000 response units. The reference flow cell was prepared with sodium acetate buffer (pH 4.5).

Chain of Ezrin (P15311 whole entry): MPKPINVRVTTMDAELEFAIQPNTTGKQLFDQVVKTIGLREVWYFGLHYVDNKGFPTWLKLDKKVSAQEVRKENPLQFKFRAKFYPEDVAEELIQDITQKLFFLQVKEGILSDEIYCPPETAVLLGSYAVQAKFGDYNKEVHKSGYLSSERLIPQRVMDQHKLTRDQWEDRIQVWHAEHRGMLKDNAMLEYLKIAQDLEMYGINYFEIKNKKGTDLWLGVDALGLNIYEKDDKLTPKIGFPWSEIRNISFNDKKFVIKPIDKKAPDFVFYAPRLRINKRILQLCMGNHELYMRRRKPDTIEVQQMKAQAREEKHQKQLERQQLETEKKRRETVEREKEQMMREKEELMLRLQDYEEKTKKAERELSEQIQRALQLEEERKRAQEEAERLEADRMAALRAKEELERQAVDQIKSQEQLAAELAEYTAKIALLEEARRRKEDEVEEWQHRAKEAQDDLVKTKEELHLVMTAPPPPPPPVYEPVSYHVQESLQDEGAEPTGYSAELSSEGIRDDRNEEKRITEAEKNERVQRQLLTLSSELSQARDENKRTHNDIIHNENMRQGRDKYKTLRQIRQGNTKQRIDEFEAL

SMILES | Kd [µM]
C/C=C/[C@H](O)C(C)(C)[C@@H]1CCC[C@H]2O[C@H]2CC[C@@H]2O[C@@H]2c2nc(co2)C(=O)O[C@H](C(C)(C)[C@@H](O)/C=C/C)C\C=C/C(C)=C\C=C/[C@H](OC)Cc2nc(co2)C(=O)O1 [Disorazole A] | 22
C/C=C/[C@H](O)C(C)(C(=O)OC)[C@@H]1C\C=C/C=C/C=C/c2nc(co2)C(=O)O[C@H](C(C)(C(=O)OC)[C@@H](O)/C=C/C)C\C=C/C=C/C=C/c2nc(co2)C(=O)O1 (some centres not stated) [Disorazole Z] | 74.9
